Tests used:
[1] = system: PSAPP mice; assay: Plaque load in cortex and hippocampus by amyloid beta immunostaining; assay type: in vivo, mouse
Procedure: PSB0474 was systemically administered to PSAPP mice via intraperitoneal injection for 2, 4 and 6 consecutive days. In one group, prior to evaluation and following to administration for 6 consecutive days, treatment was suspended for two weeks (6+2 weeks group). Brains were then fixed and plaque load was evaluated by immunostaining with the amyloid beta specific antibodies: β1-40 and β1-42. Representative images of plaque load in cortex and hippocampus from animals that received injections of PSB0474 according to the foregoing injection schedules are shown in FIGS. 1(A)-(D). […] Whereas, when administration of PSB0474 was stopped for 2 weeks following six consecutive days of treatment (denoted as the 6+2 weeks group), β1-40 staining rebounded; although to a level lower than observed in mice treated with saline as a vehicle control. […] FIGS. 2C-2F depict data obtained following administration of different dosages of PSB0474.
To generate these graphs showing plaque load, mice were euthanized, brain sections cut and antibodies directed against Aβ42 were used to disclose Aβ plaques. Images were acquired digitally and an algorithm was applied to threshold the image so that plaques were isolated from the background. The algorithm then calculated the percent area of the field of view occupied by the plaques.
Brain samples were collected for Abeta analysis with immunostaining. Brains samples were collected after transcardial perfusion with phosphate buffer and 4% paraformaldehyde. Floating brain sections (40 micron) were collected using a microtome. Immunostaining for […] and Aβ42 were performed according to previously established protocol. Images with DAB staining were collected with brightfield microscopy and analyzed with ImageJ Macro. All data analysis and statistics were performed in GraphPad Prism 6.0.
(§1) In this study, treatment of PSAPP mice commenced when the mice were pre-symptomatic. Specifically, treatment was initiated when the mice were approximately 3 months old. PSAPP mice were treated for 100 days with daily, intraperitoneal injections of 10 μg/kg of compound 5 or vehicle. Following treatment, mice were assessed in a fear conditioning task for memory formation. Subsequently, plaque burden in the mice was also evaluated. The data provided in Examples 16 and 17 is for 19 vehicle treated mice and 22 compound treated mice. The data provided for the vehicle-treated group is the average across those mice, and error bars depict the standard error (SEM). Similarly, the data provided for the compound-treated group is the average across those mice, and the error bars depict the SEM.
as §1, with “assessed for the following: concentration of circulating pro-inflammatory cytokines; amyloid beta load (e.g., plaque burden); and memory” for “assessed”, “formation.” for “formation. Subsequently, plaque burden in the mice was also evaluated.”, “Example 18” for “Examples 16 and 17”, “18” for “19”, “20” for “22”, “SEM. Mice were first evaluated in the fear conditioning task experiment. Subsequently, plasma was taken for multiplex cytokine analysis of circulating levels of cytokine in the plasma. Finally, plaque burden was assessed in the cortex and hippocampus of the mice.” for “SEM.”
In this study, treatment of PSAPP mice commenced after the mice were already symptomatic. Specifically, treatment was initiated when the mice were approximately 6 months old. […]

[2] = system: circulating cytokines in plasma of PSAPP mice; assay: Circulating cytokine levels in plasma of PSAPP mice (multiplex); assay type: in vivo, mouse; conditions: vs vehicle
Procedure: As part of the study described in Example 16, the levels of numerous cytokines in plasma of mice treated with vehicle or compound 5 were also evaluated. As described in Example 16, treatment was initiated when the mice were approximately 3 months old. PSAPP mice were treated for 100 days with daily injections of 10 μg/kg of compound 5 or vehicle. Following treatment and the fear conditioning task experiment, plasma was taken for multiplex cytokine analysis of circulating cytokine levels in vehicle-treated versus compound-treated PSAPP mice. Cytokine levels are assayed using a multi-plex system where beads are labelled with capture antibody specific for each analyte tested. Each bead set is coupled to a specific capture antibody and is distinguishable from beads coupled to a different capture antibody. Thus, the levels of each analyte can be evaluated and distinguished. […] In FIGS. 10-13, compound 5 is indicated along the x-axis as “compound”.
as §1, with “assessed for the following: concentration of circulating pro-inflammatory cytokines; amyloid beta load (e.g., plaque burden); and memory” for “assessed”, “formation.” for “formation. Subsequently, plaque burden in the mice was also evaluated.”, “Example 18” for “Examples 16 and 17”, “18” for “19”, “20” for “22”, “SEM. Mice were first evaluated in the fear conditioning task experiment. Subsequently, plasma was taken for multiplex cytokine analysis of circulating levels of cytokine in the plasma. Finally, plaque burden was assessed in the cortex and hippocampus of the mice.” for “SEM.”
In this study, treatment of PSAPP mice commenced after the mice were already symptomatic. Specifically, treatment was initiated when the mice were approximately 6 months old. PSAPP mice were treated for 7 days with daily, intraperitoneal injections of 10 μg/kg of compound 5 or vehicle. Following treatment, mice were assessed for the following: concentration of circulating pro-inflammatory cytokines; amyloid beta load (e.g., plaque burden); and plaque size. The data provided in Example 19 is for 7 vehicle treated mice and 7 compound treated mice. The data provided for the vehicle-treated group is the average across those mice, and error bars depict the standard error (SEM). Similarly, the data provided for the compound-treated group is the average across those mice, and the error bars depict the SEM. Plasma was taken for multiplex cytokine analysis of circulating levels of cytokine in the plasma. Subsequently, plaque burden was assessed in the cortex (using Aβ40) and hippocampus (using Aβ42) of the mice, and plaque size was also assessed.

[3] = Cmax after effective dose of compound 5; conditions: mouse, in vivo, 10 ug/kg; effective dose of 10 μg/kg
[4] = 10 μg/kg daily for 100 days, Example 18
[5] = 10 μg/kg daily for 100 days, Example 18, FIG. 10
[6] = 10 μg/kg i.p. daily for 7 days from ~6 months (symptomatic), Example 20, FIG. 16
[7] = 10 μg/kg i.p. daily for 100 days from ~3 months, Example 19, FIG. 14

## O=c1ccn([C@@H]2O[C@H](CO)C(O)C2O)c(=O)n1Cc1noc2ccccc12 (stereo in doubt) [compound 5]
[1]; 10 μg/kg i.p. daily for 7 days from ~6 months, Example 20, FIG. 17(B)
  plaque size: decrease
[1]; 10 μg/kg i.p. daily for 7 days from ~6 months, using Aβ40, Example 20, FIG. 17(A) upper panel
  Amyloid beta accumulation in the cortex: decreased
[1]; 10 μg/kg i.p. daily for 7 days from ~6 months, using Aβ42, Example 20, FIG. 17(A) lower panel
  Amyloid beta accumulation in the hippocampus: decreased
[1]; 10 μg/kg i.p. daily for 100 days from ~3 months of age, vs vehicle, Example 17, FIG. 9
  plaque burden: reduced
[1]; 10 μg/kg i.p. daily for 100 days from ~3 months, vs vehicle, Example 19, FIG. 15(A)
  Amyloid beta accumulation in the cortex: decreased
[1]; 10 μg/kg i.p. daily for 100 days from ~3 months, vs vehicle, Example 19, FIG. 15(B)
  Amyloid beta accumulation in the hippocampus: decreased
[1]; 10 μg/kg i.p. once per day for 7 days, PS1/APP mice 26 weeks
  size distribution of remaining plaques: significantly reduced
[1]; 10 μg/kg i.p. once per day for 7 days, PS1/APP mice 26 weeks, cortex, FIG. 6A
  Aβ40 plaque burden: significantly reduced
[2]; [4]
  average plasma level of IFN-r: reduced
  average plasma level of IL-1β: reduced
  average plasma level of IL-2: reduced
  average plasma level of IL-3: reduced
  average plasma level of IL-5: reduced
  average plasma level of IL-6: reduced
  average plasma level of IL-7: reduced
  average plasma level of IL-9: reduced
  average plasma level of IL-13: reduced
  average plasma level of IL-17: reduced
  average plasma level of LIF: reduced
  average plasma level of MIP-1α: reduced
  average plasma level of MIP-1β: reduced
  plasma level of Eotaxin: no or substantially no change
  plasma level of G-CSF: no or substantially no change
  plasma level of GM-CSF: no or substantially no change
  plasma level of IL-1α: no or substantially no change
  plasma level of IP-10: no or substantially no change
  plasma level of LIX: no or substantially no change
  plasma level of M-CSF: no or substantially no change
  plasma level of MCP-1: no or substantially no change
  plasma level of MIP-2: no or substantially no change
[2]; [5]
  plasma level of IL-4: statistically significant reduction
  plasma level of IL-10: statistically significant reduction
  plasma level of IL-12 (IL-12(p70)): statistically significant reduction
  plasma level of IL-12(p40) (p40 subunit alone): does not reflect a change
[2]; [6]
  plasma level of IL-10: statistically significant reduction
  plasma level of IL-12 (IL-12(p70)): statistically significant reduction
  plasma level of IL-13: statistically significant reduction
  plasma level of IL-17: statistically significant reduction
  plasma level of MIP-1a: statistically significant reduction
  plasma level of MIP-1b: statistically significant reduction
  plasma level of TNFα: statistically significant reduction
[2]; [7]
  plasma level of IL-2: statistically significant reduction
  plasma level of IL-4: statistically significant reduction
  plasma level of IL-10: statistically significant reduction
  plasma level of IL-12 (IL-12(p70)): statistically significant reduction
  plasma level of IL-13: statistically significant reduction
  plasma level of IL-17: statistically significant reduction
  plasma level of MIP-1a: statistically significant reduction
  plasma level of MIP-1b: statistically significant reduction
[3]
  Cmax: 13 nM

From patent US20180085386A1, “URIDINE MONOPHOSPHATE AND TRIPHOSPHATE DERIVATIVES, COMPOSITIONS AND METHODS OF USE” (Tufts University, priority 2016, published 2018)
